In patent US12428415B2, “Matriptase 2 inhibitors and uses thereof” (Disc Medicine, Inc., priority 2018, dated 2025):

These compounds were tested against T1, Human Recombinant Matriptase 2 (Homo sapiens, UniProt Q8IU80) (assay: Matriptase 2 fluorescence based inhibition assay, Method A (100 mM TRIS pH 9, 1 mg/mL BSA)). Details: 1 uM compound; Assay Used = A; read-out: Mar-2 % inhibition at 1 uM.
T1 construct: purchased Enzo Life Sciences (an in-house preparation was also used) ALX-201-752-1
T1 sequence (Q8IU80 1-811): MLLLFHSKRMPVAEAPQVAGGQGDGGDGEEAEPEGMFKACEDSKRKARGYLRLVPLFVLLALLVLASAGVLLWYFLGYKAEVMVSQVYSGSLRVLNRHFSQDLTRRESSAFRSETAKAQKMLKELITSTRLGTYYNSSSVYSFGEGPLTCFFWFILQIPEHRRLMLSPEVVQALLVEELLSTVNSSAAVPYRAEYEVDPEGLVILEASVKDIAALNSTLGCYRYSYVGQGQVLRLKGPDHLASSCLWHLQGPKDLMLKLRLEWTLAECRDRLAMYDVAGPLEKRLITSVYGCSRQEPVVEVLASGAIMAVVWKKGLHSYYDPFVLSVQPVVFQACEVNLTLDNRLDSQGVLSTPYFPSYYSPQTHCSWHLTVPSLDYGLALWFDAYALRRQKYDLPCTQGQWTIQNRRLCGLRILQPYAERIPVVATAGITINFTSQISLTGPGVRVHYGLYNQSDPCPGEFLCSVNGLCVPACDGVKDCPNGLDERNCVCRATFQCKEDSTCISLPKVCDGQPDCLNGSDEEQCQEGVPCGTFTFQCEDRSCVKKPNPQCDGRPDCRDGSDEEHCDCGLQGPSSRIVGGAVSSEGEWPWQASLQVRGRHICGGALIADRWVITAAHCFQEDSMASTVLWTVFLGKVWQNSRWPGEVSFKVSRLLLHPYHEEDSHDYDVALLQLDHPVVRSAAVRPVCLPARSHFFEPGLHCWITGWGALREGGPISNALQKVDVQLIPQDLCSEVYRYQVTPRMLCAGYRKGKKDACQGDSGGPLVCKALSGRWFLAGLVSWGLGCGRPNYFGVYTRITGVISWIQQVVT
Format: biochemical
Procedure: Test compounds were evaluated for their potential to inhibit Human Recombinant Matriptase 2 (in-house and commercial protein from Enzo Life Sciences—cat log -ALX-201-752-1) using fluorescence based assay. The concentration of Recombinant Matriptase 2 and the substrate used in the assay was: 7 nM (commercial) and 15 nM (Inhouse Matriptase 2) and 100 μM (Boc-Gln-Ala-Arg-7-amido-4-methyl coumarin hydrobromide—Cat log: B4153-Sigma) respectively. The assay buffer used was 100 mM TRIS pH 9, 1 mg/mL BSA. The assay was performed using 384 well black flat bottom plate from grenier (Cat log: 781076) at 25° C. The enzyme and compound was preincubated for 30 mins, plate was read 60 mins after substrate addition at wavelength Ex: 360/Em: 480 nm. The final assay volume was 20 μl. Stock solution of compounds were initially prepared in DMSO and appropriate dilutions were made for screening and IC50 determination (final DMSO conc in the assay was 1%). All the measurements were carried out using the Spectramax M5, Molecular devices. The compounds were screened at 1 and 10 μM concentration and IC50 was determined for the interested compounds.
To determine IC50 values, dose response curves were generated by plotting percentage inhibition as a function of inhibitor concentration and the data was fitted to sigmoidal non-linear regression equation (variable slope) using Graph Pad prism software V7.
An inhibition at 1 µM of 0 to 25% was found for `N/C(=N\O)c1ccc2cc(C(=O)NCC3CCNCC3)n(Cc3ccc4ccccc4c3)c2c1` [Compound I-398, 6-(N′-hydroxycarbamimidoyl)-1-(naphthalen-2-ylmethyl)-N-(piperidin-4-ylmethyl)-1H-indole-2-carboxamide] in this work.

Same assay, conditions: 1 uM; Assay Used A; read-out: Mar-2 % inhibition at 1 uM
An inhibition at 1 µM of 0 to 25% was found for `N=C(N)c1ccc2cc(C(=O)NCC3CCC(O)CC3)n(CCS(=O)(=O)c3ccccc3)c2c1` (centres unmarked) [Compound I-52] in this work. An inhibition at 1 µM of 0 to 25% was found for `C[C@@H](NC(=O)c1cc2ccc(C(=N)N)cc2n1Cc1ccc(C(N)=O)cc1)c1ccc(F)c(Cl)c1` [Compound I-113] in this work. An inhibition at 1 µM of 0 to 25% was found for `N=C(N)c1ccc2cc(C(=O)Nc3ccc(C(F)(F)F)cc3)n(Cc3ccc(C(N)=O)cc3)c2c1` [Compound I-61] in this work. An inhibition at 1 µM of 0 to 25% was found for `N=C(N)c1ccc2cc(C(=O)Nc3ccc4c(c3)CCC4)n(Cc3ccc(C(N)=O)cc3)c2c1` [Compound I-64] in this work. An inhibition at 1 µM of 0 to 25% was found for `CC(C)[C@@H](NC(=O)OC(C)(C)C)C(=O)O/N=C(\N)c1ccc2cc(C(=O)Nc3cccc(N4CCCC4)c3)n(Cc3ccc(C(N)=O)cc3)c2c1` [Compound I-157, (R)-tert-butyl (1-(((amino(1-(4-carbamoylbenzyl)-2-((3-(pyrrolidin-1-yl)phenyl)-carbamoyl)-1H-indol-6-yl)methylene)amino)oxy)-3-methyl-1-oxobutan-2-yl)carbamate] in this work. An inhibition at 1 µM of 25 to 50% was found for `N=C(N)c1ccc2cc(C(=O)N[C@H]3CC[C@H](N)CC3)n(Cc3ccc(C(F)(F)F)cc3)c2c1` [Compound I-4] in this work. An inhibition at 1 µM of 0 to 25% was found for `N=C(N)c1ccc2cc(C(=O)NCc3ccccc3)n(Cc3ccc(C(N)=O)cc3)c2c1` [Compound I-77] in this work. An inhibition at 1 µM of 50 to 75% was found for `CSc1ccc(Cn2c(C(=O)NC3CCC(N)CC3)cc3ccc(C(=N)N)cc32)cc1` (centres unmarked) [Compound I-13] in this work. An inhibition at 1 µM of 0 to 25% was found for `N=C(N)c1ccc2cc(C(=O)NCC3CCCCC3)n(Cc3ccc(C(N)=O)cc3)c2c1` [Compound I-191] in this work. An inhibition at 1 µM of 0 to 25% was found for `CC(C)c1ccc(Cn2c(C(=O)NCC3CCCCC3)cc3ccc(C(=N)N)cc32)cc1` [Compound I-16] in this work. An inhibition at 1 µM of 0 to 25% was found for `NC(=O)c1ccc(Cn2c(C(=O)Nc3cccc(N4CCCC4)c3)cc3ccc(C(N)=O)cc32)cc1` [Compound I-117, 1-(4-Carbamoylbenzyl)-N^2-(3-(pyrrolidin-1-yl)phenyl)-1H-indole-2,6-dicarboxamide] in this work. An inhibition at 1 µM of 0 to 25% was found for `N=C(N)c1ccc2cc(C(=O)Nc3cncc(F)c3)n(Cc3ccc(C(N)=O)cc3)c2c1` [Compound I-172] in this work. An inhibition at 1 µM of 0 to 25% was found for `C[C@@H](NC(=O)c1cc2ccc(C(=N)N)cc2n1Cc1ccc(C(N)=O)cc1)C1CCCCC1` [Compound I-194] in this work. An inhibition at 1 µM of 0 to 25% was found for `CC(C)(NC(=O)c1cc2ccc(C(=N)N)cc2n1Cc1ccc(C(N)=O)cc1)c1ccc(Cl)cc1` [Compound I-109] in this work. An inhibition at 1 µM of 0 to 25% was found for `N=C(N)c1ccc2cc(C(=O)Nc3ccc(F)cc3)n(Cc3ccc(C(N)=O)cc3)c2c1` [Compound I-59, 6-Carbamimidoyl-1-(4-carbamoylbenzyl)-N-(4-fluorophenyl)-1H-indole-2-carboxamide] in this work. An inhibition at 1 µM of 0 to 25% was found for `CSc1cccc(NC(=O)c2cc3ccc(C(=N)N)cc3n2Cc2ccc(C(N)=O)cc2)c1` [Compound I-68] in this work. An inhibition at 1 µM of 25 to 50% was found for `N=C(N)c1ccc2cc(C(=O)N[C@H]3CC[C@H](N)CC3)n(CS(=O)(=O)c3ccccc3)c2c1` [Compound I-39] in this work. An inhibition at 1 µM of 0 to 25% was found for `CO[C@H]1CCN(c2cccc(NC(=O)c3cc4ccc(C(=N)N)cc4n3Cc3ccc(C(N)=O)cc3)c2)C1` [Compound I-123] in this work. An inhibition at 1 µM of 0 to 25% was found for `CS(=O)(=O)c1cccc(NC(=O)c2cc3ccc(C(=N)N)cc3n2Cc2ccc(C(N)=O)cc2)c1` [Compound I-150] in this work. An inhibition at 1 µM of 0 to 25% was found for `C[C@H](NC(=O)c1cc2ccc(C(=N)N)cc2n1Cc1ccc(C(N)=O)cc1)c1ccc(F)cc1` [Compound I-63] in this work. An inhibition at 1 µM of 0 to 25% was found for `N=C(N)c1ccc2cc(C(=O)Nc3cc(F)ccn3)n(Cc3ccc(C(N)=O)cc3)c2c1` [Compound I-169] in this work. An inhibition at 1 µM of 0 to 25% was found for `N=C(N)c1ccc2cc(C(=O)Nc3ccc(F)c(N4CCCC4)c3)n(Cc3ccc(C(N)=O)cc3)c2c1` [Compound I-155] in this work. An inhibition at 1 µM of 0 to 25% was found for `N=C(N)c1ccc2cc(C(=O)NCc3cccc(F)c3)n(Cc3ccc(C(N)=O)cc3)c2c1` [Compound I-76] in this work. An inhibition at 1 µM of 0 to 25% was found for `N=C(N)c1ccc2cc(C(=O)Nc3cccc(-c4ccccn4)c3)n(Cc3ccc(C(N)=O)cc3)c2c1` [Compound I-134] in this work. An inhibition at 1 µM of 0 to 25% was found for `CN(C)C(=O)COc1cccc(NC(=O)c2cc3ccc(C(=N)N)cc3n2Cc2ccc(C(N)=O)cc2)c1` [Compound I-93] in this work.

Same assay, conditions: at 1 uM; Assay Used = A; read-out: Mar-2 % inhibition at 1 uM
An inhibition at 1 µM of 0 to 25% was found for `N=C(N)c1ccc2c(N)c(C(=O)N3CCC4CCCCC4C3)n(CCS(=O)(=O)c3ccccc3)c2c1` (centres unmarked) [Compound I-351] in this work. An inhibition at 1 µM of 0 to 25% was found for `N=C(N)c1ccc2cc(C(=O)N3CCC(F)CC3)n(Cc3ccc(C(N)=O)cc3)c2c1` [Compound I-326] in this work. An inhibition at 1 µM of 25 to 50% was found for `CCc1ccc(-c2cccc(Cn3c(C(=O)NC4CCC(N)CC4)cc4ccc(C(=N)N)cc43)c2)cc1` (centres unmarked) [Compound I-238] in this work. An inhibition at 1 µM of 25 to 50% was found for `N=C(N)c1ccc2cc(C(=O)N3CCC(CCN)CC3)n(CCC(N)=O)c2c1` [Compound I-276] in this work. An inhibition at 1 µM of 0 to 25% was found for `N=C(N)c1ccc2cc(C(=O)N3CCC(CCN)CC3)n(S(=O)(=O)Cc3ccccc3)c2c1` [Compound I-336] in this work. An inhibition at 1 µM of 50 to 75% was found for `N=C(N)c1ccc2cc(C(=O)N[C@H]3CC[C@H](N)CC3)n(Cc3cccc(NC(=O)CCN)c3)c2c1` [Compound I-257, N-((1r,4r)-4-aminocyclohexyl)-1-(3-(3-aminopropanamido)benzyl)-6-carbamimidoyl-1H-indole-2-carboxamide] in this work. An inhibition at 1 µM of 0 to 25% was found for `N=C(N)c1ccc2cc(C(=O)NCC3CCCCC3)n(Cc3ccc(C(=O)NCCN)cc3)c2c1` [Compound I-225, 1-(4-((2-Aminoethyl)carbamoyl)benzyl)-6-carbamimidoyl-N-(cyclohexylmethyl)-1H-indole-2-carboxamide] in this work. An inhibition at 1 µM of 0 to 25% was found for `N=C(N)c1ccc2cc(C(=O)N3CC[C@H](F)C3)n(Cc3ccc(C(F)(F)F)cc3)c2c1` [Compound I-279] in this work. An inhibition at 1 µM of 25 to 50% was found for `N=C(N)c1ccc2cc(C(=O)N3CCC(CCN)CC3)n(CCCN)c2c1` [Compound I-274] in this work. An inhibition at 1 µM of 25 to 50% was found for `N=C(N)c1ccc2cc(C(=O)NC34CC5CC(CC(C5)C3)C4)n(Cc3ccc(Oc4ccc(F)cc4)cc3)c2c1` [Compound I-245] in this work. An inhibition at 1 µM of 0 to 25% was found for `NC(=O)c1ccc(Cn2c(C(=O)Nc3cccc(N4CCCC4)c3)cc3ccc(/C(N)=N/O)cc32)cc1` [Compound I-267, 1-(4-Carbamoylbenzyl)-6-(N′-hydroxycarbamimidoyl)-N-(3-(pyrrolidin-1-yl)phenyl)-1H-indole-2-carboxamide] in this work. An inhibition at 1 µM of 0 to 25% was found for `N=C(N)c1ccc2c(N)c(C(=O)N3CCC(CCNC(=O)O)CC3)n(Cc3ccc(Oc4ccccc4)cc3)c2c1` [Compound I-347] in this work. An inhibition at 1 µM of 0 to 25% was found for `N=C(N)c1ccc2cc(C(=O)N3CCC(F)(F)C3)n(Cc3ccc(C(N)=O)cc3)c2c1` [Compound I-331] in this work. An inhibition at 1 µM of 0 to 25% was found for `NCCC1CCN(C(=O)c2cc3ccc(/C(N)=N\O)cc3n2Cc2ccc(-c3ccccc3)cc2)CC1` [Compound I-380] in this work. An inhibition at 1 µM of 0 to 25% was found for `N=C(N)c1ccc2c(N)c(C(=O)N3CCC(CCN)CC3)n(Cc3ccc(Oc4ccccc4)cc3)c2c1` [Compound I-348] in this work. An inhibition at 1 µM of 0 to 25% was found for `N=C(N)c1ccc2cc(C(=O)N3CCC(F)(F)C3)n(CCS(=O)(=O)c3ccccc3)c2c1` [Compound I-342] in this work. An inhibition at 1 µM of 0 to 25% was found for `N=C(N)c1ccc2cc(C(=O)NC3CCC(F)(F)CC3)n(Cc3cccc(C(N)=O)c3)c2c1` [Compound I-230, 6-Carbamimidoyl-1-(3-carbamoylbenzyl)-N-(4-difluorocyclohexyl)-1H-indole-2-carboxamide] in this work. An inhibition at 1 µM of 25 to 50% was found for `N=C(N)c1ccc2cc(C(=O)N[C@H]3CC[C@H](N)CC3)n(Cc3ccc(N)cc3)c2c1` [Compound I-261, 1-(4-Aminobenzyl)-N-((1r,4r)-4-aminocyclohexyl)-6-carbamimidoyl-1H-indole-2-carboxamide] in this work.
